{
  "source": "paper PMC8658909",
  "about": "“Organometallic small molecule kinase inhibitors – direct incorporation of Re and ^99mTc into Opaganib®” (Chemical Communications (Cambridge, England), 2021)",
  "target": "T1, sphingosine kinase-2 (SK2) (Homo sapiens, UniProt Q9NRA0)",
  "T1 construct": "gene SPHK2",
  "T1 sequence (Q9NRA0 1-654)": "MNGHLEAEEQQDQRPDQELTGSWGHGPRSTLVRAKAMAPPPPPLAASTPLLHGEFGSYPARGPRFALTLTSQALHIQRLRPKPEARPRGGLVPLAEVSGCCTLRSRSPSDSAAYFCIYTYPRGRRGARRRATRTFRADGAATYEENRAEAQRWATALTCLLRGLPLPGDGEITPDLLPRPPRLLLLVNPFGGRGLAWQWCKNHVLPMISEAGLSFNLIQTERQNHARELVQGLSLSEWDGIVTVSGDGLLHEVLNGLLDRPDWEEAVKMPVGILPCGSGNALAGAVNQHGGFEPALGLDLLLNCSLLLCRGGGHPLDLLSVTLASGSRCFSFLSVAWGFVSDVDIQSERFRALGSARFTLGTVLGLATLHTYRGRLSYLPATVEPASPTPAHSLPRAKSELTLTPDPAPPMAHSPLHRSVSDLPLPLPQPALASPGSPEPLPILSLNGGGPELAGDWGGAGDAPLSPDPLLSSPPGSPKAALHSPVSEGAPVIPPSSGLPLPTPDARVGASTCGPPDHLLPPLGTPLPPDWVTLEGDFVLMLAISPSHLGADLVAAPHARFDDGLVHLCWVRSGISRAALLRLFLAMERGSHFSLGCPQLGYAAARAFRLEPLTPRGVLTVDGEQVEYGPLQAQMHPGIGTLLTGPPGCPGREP",
  "experiment": "SK2 kinase inhibition IC50 (details in ESI)",
  "format": "biochemical",
  "data": [
    {"smiles": "O=C(NCc1ccncc1)C12CC3CC(C1)CC(c1ccc(Cl)cc1)(C3)C2", "note": "[Opaganib®, Opaganib]", "values": [
      {"measurement": "IC50", "result": "15.8 ± 3", "unit": "µM"}
    ]}
  ]
}
